Patent US8017554B2, “3-amino-1,2-benzisothiazole compounds for combating animal pest” (BASF SE, priority 2006, dated 2011)

melting point: 111 to 114 °C
Compound: CCN1C(=N)c2c(OC)cccc2S1(=O)=O [Compound example 3, 2-Ethyl-4-methoxy-1,1-dioxo-1,2-dihydro-1λ*6*-benzo[d]isothiazol-3-ylideneamine]
